Entries after “also recorded” stand apart in the source; their conditions may differ.
Experiments:
Format in all cases: physicochemical
[1] = Slurry experiments in SGF; details: 37° C., 500 rpm
Method: About 200 mg of sodium chloride and about 100 mg Triton X-100 was weighted into a 100-mL volumetric flask. About 100 mL of purified water was added to the flask and the solution was sonicated until all solids were completely dissolved. 1 M HCl was added to adjust the pH to 1.8 and the solution was mixed well and the pH was checked with a pH meter.
Competitive slurry experiments were performed for Forms A, H^A, H^B, C and D in SGF. About 10 mg of each form was added into separate HPLC vials followed by addition of 1.0 mL SGF in order to form slurries. The slurries were heated to 37° C. and stirred at 500 rpm. After 2 h or 24 h, the samples were centrifuged and the solids were collected for XRPD testing.

[2] = Hydration mapping starting with Form A
Method: To establish the hydration map of compound 1, solutions with varying water activity (aw) were prepared and the aw was measured using a water activity meter. Table 13 below details the solvent systems investigated and their corresponding measured water activities.
23×20 mg of Form A of compound 1 was weighed into vials. 1 mL of solvent (see tables above) was added to each vial to form a slurry. After manual shaking for a few seconds, where solutions were observed, an additional ˜10 to 20 mg of solid was added to produce a slurry. Additional solid was added to the 2-MeTHF, water/2-MeTHF (1:99% v/v), acetone/water (aw of 0.92) and methanol/water (aw of 0.11) samples. All slurries were then agitated for 24 h at 25° C. After 24 h, aliquots of solid were isolated via centrifugal filtration and analysed by XRPD. The remaining slurries were agitated for a further 5 days (total of 6 days). The solids were isolated and analysed by XRPD. All identified forms were analysed by XRPD, TG/DSC and ^1H NMR (where sufficient material was available).

[3] = Ethanol/hydrocarbon mixtures slurry study
Method: Using the methods described above for the Form A input and amorphous input experiments, 5×20 mg of Form A slurries and 5×20 mg of amorphous input slurries were prepared by adding 1 mL of solvent (see Table 16 below) to each vial and the resulting slurries were agitated for 24 h at 25° C. After 24 h, aliquots of solid were isolated via centrifugal filtration and analysed by XRPD.

[4] = Form investigation in buffered media; details: for XRPD Pattern / pH (24 h): 24 h at 25° C.
Method: To investigate the polymorphic landscape of compound 1 in buffered systems, 5×20 mg of Form A slurries and 5×20 mg of amorphous slurries (amorphous material prepared using the method described in the above hydration mapping experiments) were prepared by adding 1 mL of buffer to each vial and the resulting slurries were agitated for 24 h at 25° C. The pH was measured post-buffer addition and after 24 h agitation. After 24 h, aliquots of solid were isolated via centrifugal filtration and analysed by XRPD.

[5] = Dynamic Vapor Sorption (DVS) of Form C
Method: Approximately, 10 mg of sample was placed into a mesh vapor sorption balance pan and loaded into a DVS-1/DVS Intrinsic/DVS Advantage dynamic vapor sorption balance by Surface Measurement Systems. The sample was subjected to a ramping profile from 40-90% relative humidity (RH) at 10% increments, maintaining the sample at each step until a stable weight had been achieved (dm/dt 0.004%, minimum step length 30 min, maximum step length 500 min) at 25° C. After completion of the sorption cycle, the sample was dried using the same procedure to 0% RH and then a second sorption cycle back to 40% RH. Two cycles were performed. The weight change during the sorption/desorption cycles were plotted, allowing for the hygroscopic nature of the sample to be determined. XRPD analysis was then carried out on any solid retained.
FIGS. 1D and 1E depict DVS plots of Form C of compound 1. […] Below 20% RH, Form C experienced a mass loss of 8.6%, about equal to 2 equivalents of water.
(§1) FIG. 1F depicts a set of XRPD patterns of Form C of compound 1, comparing the originally isolated form, material after DVS experiments and material after being dried under vacuum. […] Form G was also observed after vacuum drying of Form C.

Vacuum drying of Form C = details: dried under vacuum
Method: as §1
Procedure A: Form C of compound 1 was dried under vacuum at 40° C. for about 2 hours. After drying Form G was recovered.

[6] = Competitive slurry experiments among anhydrates (IPA/IPAc); details: at RT and 50° C., IPA/IPAc slurries
Method: Competitive slurry experiments were performed in IPA/IPAc at RT/50° C. between anhydrates Form A of compound 1 and Form D of compound 1. Form A of compound 1 was added into each solvent to form a slurry at RT or 50° C. and was stirred for 2 h. The slurries were then filtered to obtain saturated solution. Around 10 mg each of Form A of compound 1 and Form D of compound 1 were added into each solution to form a mixed slurry at RT or 50° C. […] The formation of Form H^A of compound 1 is postulated to be caused by residual water in the solvents or due to ambient humidity (˜35% humidity during slurry experiments).

[7] = Acetone/Water, aw 0.1363, 25° C.
[8] = Acetone/Water, aw 0.2621, 25° C.
[9] = Acetone/Water, aw 0.5455, 25° C.
[10] = EtOH/Heptane, aw 0.0300, 25° C.
[11] = Water/2-MeTHF, aw 0.5286, 25° C.

Compound: Cc1ccc(-c2noc([C@H]3C[C@@H]3F)n2)cc1NC(=O)c1cnc2ccccn12 [Form A, N-(5-(5-((1R,2S)-2-fluorocyclopropyl)-1,2,4-oxadiazol-3-yl)-2-methylphenyl)imidazo[1,2-a]pyridine-3-carboxamide]
- XRPD at 2 h [1]: transformed to Form C
- XRPD at 24 h [1]: transformed to Form C
- XRPD pattern observed, 24 h ([2]; 2-MeTHF, aw 0.0378, 25° C.): Form A
- XRPD pattern observed, 6 Days ([2]; 2-MeTHF, aw 0.0378, 25° C.): Form A
- XRPD pattern observed, 24 h [2, 7]: Form H^A
- XRPD pattern observed, 6 Days [2, 7]: Form H^A
- XRPD pattern observed, 24 h [2, 8]: Form H^A
- XRPD pattern observed, 6 Days [2, 8]: Form H^A
- XRPD pattern observed, 24 h [2, 9]: Form H^A
- XRPD pattern observed, 6 Days [2, 9]: Form H^A
- XRPD pattern observed, 6 Days ([2]; Acetone/Water, aw 0.7082, 25° C.): Form H^A
- XRPD pattern observed, 24 h [2, 10]: Form A
- XRPD pattern observed, 6 Days [2, 10]: Form A
- XRPD pattern observed, 24 h ([2]; EtOH/Water, aw 0.1580, 25° C.): Form H^A
- XRPD pattern observed, 6 Days ([2]; EtOH/Water, aw 0.1580, 25° C.): Form H^A
- XRPD pattern observed, 24 h ([2]; EtOH/Water, aw 0.3377, 25° C.): Form H^A
- XRPD pattern observed, 6 Days ([2]; EtOH/Water, aw 0.3377, 25° C.): Form H^A
- XRPD pattern observed, 24 h ([2]; EtOH/Water, aw 0.4986, 25° C.): Form H^A
- XRPD pattern observed, 6 Days ([2]; EtOH/Water, aw 0.4986, 25° C.): Form H^A
- XRPD pattern observed, 24 h ([2]; EtOH/Water, aw 0.7600, 25° C.): Form H^A
- XRPD pattern observed, 6 Days ([2]; EtOH/Water, aw 0.7600, 25° C.): Form H^A
- XRPD pattern observed, 24 h ([2]; EtOH/Water, aw 0.9005, 25° C.): Form A
- XRPD pattern observed, 24 h ([2]; MeCN/Water, aw 0.1060, 25° C.): Form H^A
- XRPD pattern observed, 6 Days ([2]; MeCN/Water, aw 0.1060, 25° C.): Form H^A
- XRPD pattern observed, 24 h ([2]; MeCN/Water, aw 0.3664, 25° C.): Form H^A
- XRPD pattern observed, 6 Days ([2]; MeCN/Water, aw 0.3664, 25° C.): Form H^A
- XRPD pattern observed, 24 h ([2]; MeCN/Water, aw 0.5573, 25° C.): Form H^A
- XRPD pattern observed, 6 Days ([2]; MeCN/Water, aw 0.5573, 25° C.): Form H^A
- XRPD pattern observed, 6 Days ([2]; MeCN/Water, aw 0.7300, 25° C.): Form H^A
- XRPD pattern observed, 24 h ([2]; MeOH/Water, aw 0.0963, 25° C.): Form H^A
- XRPD pattern observed, 6 Days ([2]; MeOH/Water, aw 0.0963, 25° C.): Form H^A
- XRPD pattern observed, 24 h ([2]; MeOH/Water, aw 0.3242, 25° C.): Form H^A
- XRPD pattern observed, 6 Days ([2]; MeOH/Water, aw 0.3242, 25° C.): Form H^A
- XRPD pattern observed, 24 h ([2]; MeOH/Water, aw 0.5145, 25° C.): Form H
- XRPD pattern observed, 6 Days ([2]; MeOH/Water, aw 0.5145, 25° C.): Form H^A
- XRPD pattern observed, 24 h ([2]; MeOH/Water, aw 0.6965, 25° C.): Form H
- XRPD pattern observed, 6 Days ([2]; MeOH/Water, aw 0.6965, 25° C.): Form H
- XRPD pattern observed, 24 h ([2]; MeOH/Water, aw 0.9294, 25° C.): Form A
- XRPD pattern observed, 6 Days ([2]; MeOH/Water, aw 0.9294, 25° C.): Form C
- XRPD pattern observed, 24 h [2, 11]: Form H^A
- XRPD pattern observed, 6 Days [2, 11]: Form H^A
- XRPD pattern observed ([3]; EtOH/Cyclohexane (50:50% v/v), aw 0.025, 24 h at 25° C.): Form A
- XRPD pattern observed ([3]; EtOH/Dodecane (50:50% v/v), aw 0.024, 24 h at 25° C.): Form A
- XRPD pattern observed ([3]; EtOH/Hexane (50:50% v/v), aw 0.018, 24 h at 25° C.): Form A
- XRPD pattern observed ([3]; EtOH/Methylcyclohexane (50:50% v/v), aw 0.019, 24 h at 25° C.): Form A
- XRPD pattern observed ([3]; EtOH/Octane (50:50% v/v), aw 0.019, 24 h at 25° C.): Form A
- XRPD Pattern ([4]; NaOH (0.2M)): Form H^A and Form C
- XRPD Pattern ([4]; pH 1.2 (HCl—KCl)): HCl Salt Form
- XRPD Pattern ([4]; pH 4.5 (acetate)): Form F
- XRPD Pattern ([4]; pH 6.8 (phosphate)): Form H^A
- XRPD Pattern ([4]; pH 8 (PBS)): Form H^A
- pH (Post-Buffer Addition) ([4]; slurry in NaOH (0.2M)): 11.98
- pH (24 h) ([4]; slurry in NaOH (0.2M)): 11.91
- pH (Post-Buffer Addition) ([4]; slurry in pH 1.2 (HCl—KCl)): 1.20
- pH (24 h) ([4]; slurry in pH 1.2 (HCl—KCl)): 1.19
- pH (Post-Buffer Addition) ([4]; slurry in pH 4.5 (acetate)): 4.63
- pH (24 h) ([4]; slurry in pH 4.5 (acetate)): 4.62
- pH (Post-Buffer Addition) ([4]; slurry in pH 6.8 (phosphate)): 6.87
- pH (24 h) ([4]; slurry in pH 6.8 (phosphate)): 6.88
- pH (Post-Buffer Addition) ([4]; slurry in pH 8 (PBS)): 8.04
- pH (24 h) ([4]; slurry in pH 8 (PBS)): 8.17

Compound: Cc1ccc(-c2noc([C@H]3C[C@@H]3F)n2)cc1NC(=O)c1cnc2ccccn12 [Form C, N-(5-(5-((1R,2S)-2-fluorocyclopropyl)-1,2,4-oxadiazol-3-yl)-2-methylphenyl)imidazo[1,2-a]pyridine-3-carboxamide]
- form after DVS (XRPD) ([5]; after DVS experiments): converted into Form G
- mass loss (DVS) ([5]; below 20% RH, 25° C.): 8.6%
- total mass uptake (DVS) ([5]; between 20% and 90% RH, 25° C.): 0.6%
- XRPD at 2 h [1]: No form change; also recorded: Form C
- XRPD at 24 h [1]: No form change; also recorded: Form C
- form after vacuum drying (XRPD) (Vacuum drying of Form C): Form G

Compound: Cc1ccc(-c2noc([C@H]3C[C@@H]3F)n2)cc1NC(=O)c1cnc2ccccn12 [Form H^A, N-(5-(5-((1R,2S)-2-fluorocyclopropyl)-1,2,4-oxadiazol-3-yl)-2-methylphenyl)imidazo[1,2-a]pyridine-3-carboxamide]
- relative thermodynamic stability [6]: thermodynamically more stable than Form A
- XRPD at 2 h [1]: No form change; also recorded: Form H^A
- XRPD at 2 h ([1]; listed as Form H^B): No form change; also recorded: Form H^B
- XRPD at 24 h [1]: No form change; also recorded: Form H^A
- XRPD at 24 h ([1]; listed as Form H^B): No form change; also recorded: Form H^B
